Reference: US9045401B2, “Methods for treating or ameliorating a melanoma and killing melanoma cells” (THE REGENTS OF THE UNIVERSITY OF CALIFORNIA, priority 2007, dated 2015)
Entries after “also recorded” stand apart in the source; their conditions may differ.

Key:
[1] = partition from liquid phase into 100 nanometer liposomes (nanosomes); type: physicochemical
Procedure: Preparation of Liposomes. Cholesterol:Dope:Dspc:Sca:Dspe-Mpeg (in 1:1:1:0.16:0.16 molar ratio) in chloroform were taken in 30 mL glass culture tubes, dried under a stream of nitrogen gas and vacuum-dessicated for a minimum of 6 h to remove any residual organic solvent. The dried lipid film was hydrated in sterile deionized water in a total volume of 1 mL for a minimum of 12 h. Liposomes were vortexed for 2-3 minutes to remove any adhering lipid film and sonicated in a bath sonicator (ULTRASONIK 28X™) for 2-3 minutes at room temperature to produce multilamellar vesicles (MLV). MLVs were then sonicated with a Ti-probe (using a BRANSON450™ sonifier at 100% duty cycle and 25 W output power) in an ice bath for 1-2 minutes to produce small unilamellar vesicles (SUVs) as indicated by the formation of a clear translucent solution. The solution was pressure filtered in sequence though 200 and then 100 nm nucelopore polycarbonate membranes to obtain liposome nanoparticles of 100 nm with a polydispersity factor of less than 0.1.

HUVEC cells = experiment: endothelial cell tube formation on Matrigel; type: cell-based, human
Procedure: Endothelial Cell Tube Formation. 96-well plates were coated with 200 uL matrigel per well and stored at 4° C. until use. HUVEC cells were harvested and cell suspensions were prepared at a density of 200,000/ml., and added at 100 ul per well to the plates. […] The plates were incubated at 37° C. under standard incubator conditions and the results were observed microcopically for tube formation.

A-549 cells = experiment: cell toxicity studies by microscopy; type: cell-based, human; details: for cell state by microscopy: 24 h
Procedure: FIG. 7 illustrates cell toxicity studies using A-549 cells and somocystinamide A (ScA); FIG. 7A illustrates microscopy images of cells with DMSO (1%) as a control at 24 h; FIG. 7B-ScA (WG-144) on A-549 cells at 100 nM 24 h; FIG. 7C-ScA (WG-144) on A549 cells 1.0 uM 24 h; FIG. 7D-ScA (WG-144) on A549 cells, 10 uM, 24 h. In FIG. 7A, the negative control (no ScA) the live cells are confluent.
FIG. 28(B): A549 cells were fixed and costained using antibodies directed against ceramide (red channel) (Bars in A/B=[…]). Arrows indicate regions of “blebbing.” The nuclear compartment was visualized using DAPI to stain DNA (blue channel). The assessments were performed two hours after treatment with 300 nM ScA. FIG. 28(C): Immunoblot analysis of Jurkat cells was performed following treatment with 100 nM ScA. 25 μg of cell lysates was probed for caspases 8, 3 and 9 and for PARP and actin (loading control) as indicated. FIG. 28(D): Caspase 8 deficient (Casp 8), FADD deficient (FADD −) or parental Jurkat cells (Jurkat) were incubated with 50 or 300 nM for 6 hours and analyzed for the presence of apoptotic cells via FACs analysis of DNA content. Results shown are the mean and standard error of triplicate determinations. FIG. 28(E): A549 cells subjected to lentivirus-delivered shRNA-mediated knockdown of caspase 8, or treated with a scrambled shRNA lentivirus. Cells were then cultured in the presence of increasing doses of ScA, as indicated. Viability was measured by XTT assay after 72 hours, and normalized to controls not treated with drug. FIG. 28(F): similarly, the viability of neuroblastoma cultures deficient in caspase expression, or reconstituted for caspase 8 expression, was determined as for the A549 cells above. Both experiments are representative, with each point shown the mean±SE of triplicate wells.

[2] = tested on: NB7 caspase 8 positive cells; experiment: XTT cell proliferation assay; type: cell-based, human
Procedure: Cell lines. Cells and cell lines were maintained in either DMEM or RPMI supplemented with 10% FCS. The caspase-deficient NB7 neuroblastoma cells have been previously described (33). C8-deficient and reconstituted jurkat cells were provided by Dr. Steve Hedrick (UCSD). Silencing of Caspase-8 gene expression in the A549 cells was performed through the use of delivering shRNA in a lentiviral format. Briefly 293 T cells were transfected with caspase-8, (Open Biosystems) or scrambled (Addgene) shRNAs in pLK0.1 lentiviral vector, together with lentiviral packaging plasmids (PMLDL, VSV-G and RSV-REV) using fugene6. The ratio of target ShRNAs and packaging plasmids was ShRNA/PMLDL/VSV-G/RSV-REV, 10/10/6/4 μg. Lentiviral supernatants from 293 T cells were harvested after 48 hours and used to infect A549 cells. Viral constructs were incubated for 24 h with A549 cell lines prior to replacing media with selective media containing puromycin (1 μg/ml). […]
Cytotoxicity Assay. Cytotoxicity of ScA was assessed using the XTT cell proliferation assay. […] The plates were then incubated under standard tissue culture conditions until the control wells (DMSO) reached an OD value between 1.0-1.5. as measured at 450 nm using a microtiter plate reader. The cell viability-drug dilution profiles were obtained from sigma plots, and drug concentrations which inhibited growth by 50% were calculated from multiple runs. […]

[3] = solubility in aqueous media; type: physicochemical
A-549 lung cancer cells = experiment: XTT cell proliferation / viability assay; type: cell-based, human; details: for IC50: Homo sapiens
Procedure: Cell lines. Cells and cell lines were maintained in either DMEM or RPMI supplemented with 10% FCS. The caspase-deficient NB7 neuroblastoma cells have been previously described (33). C8-deficient and reconstituted jurkat cells were provided by Dr. Steve Hedrick (UCSD). Silencing of Caspase-8 gene expression in the A549 cells was performed through the use of delivering shRNA in a lentiviral format. Briefly 293 T cells were transfected with caspase-8, (Open Biosystems) or scrambled (Addgene) shRNAs in pLK0.1 lentiviral vector, together with lentiviral packaging plasmids (PMLDL, VSV-G and RSV-REV) using fugene6. The ratio of target ShRNAs and packaging plasmids was ShRNA/PMLDL/VSV-G/RSV-REV, 10/10/6/4 μg. Lentiviral supernatants from 293 T cells were harvested after 48 hours and used to infect A549 cells. Viral constructs were incubated for 24 h with A549 cell lines prior to replacing media with selective media containing puromycin (1 μg/ml). The suppression of caspase-8 was verified by western blot.
Cytotoxicity Assay. Cytotoxicity of ScA was assessed using the XTT cell proliferation assay. Briefly cells were plated on 96 well plates (5,000 per well) and incubated over night at 37° C. to allow for attachment and spreading. After 24 h, ScA was added from a DMSO stock, previously frozen at −80C as added directly from serial dilutions in DMSO at concentrations ranging from 100 uM to 100 fM. After 72 h, XTT (Aldrich Chemicals) was added to a final concentration of 250 ug/well. The plates were then incubated under standard tissue culture conditions until the control wells (DMSO) reached an OD value between 1.0-1.5. as measured at 450 nm using a microtiter plate reader. The cell viability-drug dilution profiles were obtained from sigma plots, and drug concentrations which inhibited growth by 50% were calculated from multiple runs. (IC50)

chemical stability = type: physicochemical

## C=CC/C=C/N(C)C(=O)CCCCCCCC/C=C/[C@H](CSSC[C@@H](/C=C/CCCCCCCCC(=O)N(C)/C=C/CC=C)NC(C)=O)NC(C)=O [somocystinamide A, Somocystinamide A]
[1]
  interchelation of ScA within the nanosomes: essentially complete within thirty minutes
HUVEC cells; 1 μM, 100 μM and 10 nM, FIG. 3
  tube formation of HUVEC/matrigel: inhibits tube formation
HUVEC cells; 48 hours, FIG. 30B, listed as ScA
  endothelial cell tube formation: potently blocked endothelial cell tube formation; also recorded: endothelial cell tube formation was disrupted in dose-dependent manner
A-549 cells; 100 nM ScA, FIG. 28A
  cell morphology, bright field microscopy: induces a blebbing morphology
A-549 cells; 100 nM
  cell state by microscopy: transitioning to apoptosis
A-549 cells; 1.0 uM
  cell state by microscopy: in a state of apoptosis but no lysis
A-549 cells; 10 uM
  cell state by microscopy: in total lysis
[2]; Homo sapiens, anti-proliferative effect, FIG. 6
  IC50: 12 nM
[2]; relative to NB7 cells
  sensitivity of the caspase 8 positive cells to ScA: 100 times
[3]
  solubility: limited solubility
A-549 lung cancer cells; A549, anti-proliferative effect, FIG. 6
  IC50: 46 nM
A-549 lung cancer cells; A549, percent cell viability, FIG. 16
  IC50: 114 nM
A-549 lung cancer cells; lentivirus shRNA silencing of caspase 8 or caspase 3, FIG. 24
  pro-apoptotic response induced by scA: attenuate the pro-apoptotic response
A-549 lung cancer cells; shRNA knockdown of caspase 8, FIG. 28E
  loss in sensitivity to ScA: five-fold
Chemical stability; apart from hydrolytic degradation of the unsaturated amide
  storage stability: otherwise quite stable
Chemical stability; converts to compound 2
  acid sensitivity: highly acid-sensitive
